Measured values published in patent EP0063525A1, “Dibenzazepine tetracyclic derivatives, process for their preparation and pharmaceutical compositions containing them” (CENTRE NATIONAL DE LA RECHERCHE SCIENTIFIQUE (CNRS), priority 1981, dated 1982).
Values after ≈ are worked out from the molar mass of the structure shown. Like-named read-outs stand apart in the source and are kept apart here.

Assays:
Souris [1] = assay: tetrabenazine hypothermia; format: in vivo; settings: product i.p. 5 mg/kg 30 min before tétrabénazine 32 mg/kg i.v.
[2] = acute toxicity in the mouse, intraperitoneal; format: in vivo, Souris; settings: mouse, in vivo, ip, voie intrapéritonéale; for mortality at 48 h: read-out: Mortalité %
Text: (§1) Les produits ont été administrés par voie intrapéritonéale à des souris femelles dont le poids variait de 18 à 30 g.
(§2) Les animaux injectés ont été maintenus dans une salle thermostatée, nourris et abreuvés à volonté.
(§3) La mortalité a été relevée à 1 heure, 4 heures, 24 heures et 48 heures.

souris femelles = assay: acute toxicity in the mouse, intraperitoneal; format: in vivo; settings: voie intrapéritonéale, dead mice of the group
Text: as §1, §2, §3

Souris [3] = assay: tetrabenazine ptosis; format: in vivo; settings: product i.p. 5 mg/kg 30 min before tétrabénazine 32 mg/kg i.v.
Souris [4] = assay: analgesic activity, phenylbenzoquinone writhing technique; format: in vivo
Description: Ce test consiste à rechercher une éventuelle protection vis-à-vis des crampes ou contorsions abdominales provoquées chez la Souris par injection intrapéritonéale de phénylbenzoquinone.
Les souris sont réparties au hasard par lots de 4 dans des cristallisoirs.
Le compose 2 a été injecté par voie intrapéritonéale, 30 minutes avant l'injection de la phénylbenzoquinone.
Les crampes abdominales sont comptées pour chaque souris pendant 30 minutes à partir de la quinzième minute qui suit l'injection de l'agent algogène.

Iléon de cobaye [5] = assay: spasmolytic action, anticholinergic effect (acetylcholine contraction); format: cell-based; settings: acétylcholine 3 à 6 x 10^-5 mg/ml, six préparations; read-out: DE 50 (effet anticholinergique)
Description: (§4) Les essais ont été effectués sur l'Iléon de cobaye maintenu en survie dans une solution de Tyrode oxygénée et thermostabilisée à 37° C suivant le méthode de MAGNUS.
(§5) L'action spasmolytique du composé 2 a été étudiée en opposition avec les propriétés spasmogènes de l'acétylcholine, du chlorure de baryum, de l'histamine et de la sérotonine.
Ces essais ont été effectués sur six préparations. L'effet inhibiteur du composé 2 a été recherché à l'encontre des propriétés contracturantes de l'acétylcholine utilisée à la concentration de 3 à 6 x 10^-5 mg/ml pour une cuve de 30 ml.

rat = assay: medium-term toxicity in the rat, per os, 5 weeks; settings: per os, 2, 10 et 50 mg/kg pendant 5 semaines
Description: Cette étude a eu pour but de rechercher les effets éventuels du composé 2 sur les différents paramètres biologiques hématologi -ques et histologiques du rat après traitement per os à raison de 2,10 et 50 mg/kg pendant 5 semaines.

Iléon de cobaye [6] = assay: spasmolytic action, anti barium chloride effect; format: cell-based; settings: BaCl2 6 x 10^-2 mg/ml
Description: as §4, §5
Ces essais ont été effectués sur douze préparations. Six ont été utilisées pour la recherche d'inhibition de la contraction ba- rytique dite curative, les six autres pour les essais dits "préventif baryum".
La concentration de BaCl2 utilisée comme agent contracturant est de 6 x 10^-2 mg/ml.

Souris [7] = assay: antireserpine activity: reserpine hypothermia; format: in vivo; settings: réserpine 5 mg/kg i.p. 17 h before, product i.p. 5 mg/kg
In short: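 Mice in groups of 4 given reserpine 5 mg/kg i.p.; 17 hours later rectal temperature taken by thermocouple and test substance or solvent given i.p. Temperature measured hourly for 4 hours. Reported as mean temperature changes at 1, 2, 3 and 4 hours, their 4-hour sum, and percent rise versus solvent controls.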

Iléon de cobaye [8] = assay: spasmolytic action, antihistaminic effect; format: cell-based; settings: histamine 0,5 à 3 x 10^-5 mg/ml, cinq préparations; read-out: DE 50 envers le spasme provoqué par l'histamine
Description: as §4, §5
Ces essais ont été pratiqués sur cinq préparations. L'histamine a été utilisée à la concentration de 0,5 à 3 x 10^-5 mg/ml.

chiens anesthésiés = assay: cardiovascular toxicity in the anaesthetised dog, slow perfusion; format: in vivo, Chien; settings: in vivo, 20 mg/kg
Description: L'étude du composé 2 a été effectuée sur 7 chiens anesthésiés à des doses allant de 4 à 20 mg/kg en perfusion lente.

[9] = 20 mg/kg/IP 30 min before phényl-benzoquinone 10 mg/kg/IP
[10] = 50 mg/kg/IP 30 min before phényl-benzoquinone 10 mg/kg/IP

## CN(C)CCN1c2ccccc2C2ON=C(c3ccccc3)C2c2ccccc21 (stereo not drawn) [Composé 2, (β-diméthylaminoéthyl)-8 phényl-3 trihydro-3a,8, 12b (dibenzo [b,f]isoxazolo [4,5-d])azépine]
Souris [1]; ip, 2 h, hypothermie, read-out: % de protection
  inhibition in vivo at 5 mg/kg: 3%
Souris [1]
  Température après tétrabénazine 30 minutes: -3,2
  Température après tétrabénazine 60 minutes: -2,6
  Température après tétrabénazine 90 minutes: -1,3
  Température après tétrabénazine 120 minutes: -1,3
  Température après tétrabénazine Total: -8,3
[2]; souris femelles, read-out: DL 50
  LD50 at 48 h: 95 mg/kg
[2]; 10 mg/kg
  mortality at 48 h: 0%
[2]; 50 mg/kg
  mortality at 48 h: 0%
[2]; 75 mg/kg
  mortality at 48 h: 0%
[2]; 100 mg/kg
  mortality at 48 h: 60%
[2]; 200 mg/kg
  mortality at 48 h: 100%
Souris femelles; 10 mg/kg
  Mortalité en 1 heure: 0
  Mortalité en 48 h.: 0
Souris femelles; 50 mg/kg
  Mortalité en 1 heure: 0
  Mortalité en 48 h.: 0
Souris femelles; 75 mg/kg
  Mortalité en 1 heure: 0
  Mortalité en 48 h.: 0
Souris femelles; 100 mg/kg
  Mortalité en 1 heure: 3
  Mortalité en 48 h.: 3
Souris femelles; 200 mg/kg
  Mortalité en 1 heure: 4
  Mortalité en 48 h.: 5
Souris [3]; ip, 2 h, ptosis, read-out: % de protection
  inhibition in vivo at 5 mg/kg: 5%
Souris [3]
  Ptosis Total: 28,6
Souris [3]; score 0-4 per eye
  Ptosis 30 minutes: 4,8
  Ptosis 60 minutes: 7,8
  Ptosis 90 minutes: 8
  Ptosis 120 minutes: 8
Souris [4]; [9]
  % de protection: 70%
  Nombre de crampes en 30 minutes: 35
Souris [4]; [10]
  % de protection: 100%
  Nombre de crampes en 30 minutes: 0
Souris [4]; in vivo
  action protectrice envers le syndrome douloureux à la phénylbenzoquinone: action protectrice importante
Iléon de cobaye [5]
  EC50: 0.5 µg/mL (≈ 1.3 µM)
rat
  paramètres biologiques hématologiques et histologiques du rat: aucune modification
Iléon de cobaye [6]; curative, read-out: concentration for inhibition de 50% de l'effet spasmogène, essais curatifs
  IC50: 1 µg/mL (≈ 2.61 µM)
Iléon de cobaye [6]; Cavia porcellus, preventive, read-out: concentration for inhibition de 50% de l'effet spasmogène, essais préventifs
  IC50: 0.5 µg/mL (≈ 1.3 µM)
Souris [7]; ip, 4 h, read-out: % d'augmentation par rapport aux témoins
  change in vivo at 5 mg/kg: 155%
Souris [7]
  variation de température T= 2h: +1,6
  variation de température T=3h: +0,7
  variation de température T=4h: +1,4
Iléon de cobaye [8]
  EC50: ~0.05 µg/mL (≈ 0.13 µM)
Chiens anesthésiés
  toxicité sur le système cardiovasculaire comparativement à l'imipramine: plus faible toxicité
